Test results taken from a compilation of properties of binary mixtures (doi:10.1021/je1012444).

Test: xn = mol fraction of the nth substance listed
Settings: 100 kPa

CCCC[n+]1ccn(C)c1.F[P-](F)(F)(F)(F)F + c1ccccc1
viscosity [mPa·s]
Settings | x2 = 0.0999 | x2 = 0.2002 | x2 = 0.3003 | x2 = 0.3953 | x2 = 0.5001 | x2 = 0.6779
313.2 K | 54.8 | 40.7 | 29 | 18.5 | 11.2 | 7.2
333.2 K | 26.9 | 22 | 15.1 | 9.6 | 7.6 | –
